Key:
[1] = biological target: T1, α3β4α5 nAChR (Homo sapiens, UniProt P30532+P30926+P32297); settings: agonist binding site
[2] = biological target: T1, α3β4α5 nAChR; assay: biochemical
[3] = biological target: α3β4 nAChR (Homo sapiens, UniProt P30926+P32297); assay: biochemical
Chain of α3β4 nAChR (P32297 32-505): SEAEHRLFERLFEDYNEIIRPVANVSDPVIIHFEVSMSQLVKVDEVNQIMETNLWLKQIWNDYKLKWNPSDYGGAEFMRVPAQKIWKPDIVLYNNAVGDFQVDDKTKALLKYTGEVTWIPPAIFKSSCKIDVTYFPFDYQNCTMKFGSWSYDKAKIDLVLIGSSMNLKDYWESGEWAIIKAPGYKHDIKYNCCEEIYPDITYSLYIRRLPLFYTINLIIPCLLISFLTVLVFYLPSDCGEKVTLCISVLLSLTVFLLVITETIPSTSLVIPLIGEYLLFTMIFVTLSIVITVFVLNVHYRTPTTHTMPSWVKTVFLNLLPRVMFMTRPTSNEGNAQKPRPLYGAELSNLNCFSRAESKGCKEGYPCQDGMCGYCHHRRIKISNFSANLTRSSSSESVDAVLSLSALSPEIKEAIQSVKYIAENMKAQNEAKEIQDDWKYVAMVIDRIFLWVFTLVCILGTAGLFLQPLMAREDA
Chain of α3β4 nAChR (P30926 22-498): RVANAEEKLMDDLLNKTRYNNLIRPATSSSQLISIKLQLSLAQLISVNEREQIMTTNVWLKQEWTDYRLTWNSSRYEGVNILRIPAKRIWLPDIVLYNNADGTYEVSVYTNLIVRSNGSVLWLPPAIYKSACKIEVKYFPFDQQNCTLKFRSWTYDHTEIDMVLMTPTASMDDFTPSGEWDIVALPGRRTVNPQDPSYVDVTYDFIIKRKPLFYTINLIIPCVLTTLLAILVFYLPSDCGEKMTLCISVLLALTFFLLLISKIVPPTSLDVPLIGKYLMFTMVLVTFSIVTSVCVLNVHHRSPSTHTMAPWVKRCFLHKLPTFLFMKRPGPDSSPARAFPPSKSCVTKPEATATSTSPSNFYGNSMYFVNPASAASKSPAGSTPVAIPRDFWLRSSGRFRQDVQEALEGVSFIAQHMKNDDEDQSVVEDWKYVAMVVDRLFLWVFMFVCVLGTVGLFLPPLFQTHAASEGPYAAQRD

T1 sequence (P32297 32-505): as the sequence (P32297 32-505) above
T1 sequence (P30926 22-498): as the sequence (P30926 22-498) above
T1 sequence (P30532 23-468): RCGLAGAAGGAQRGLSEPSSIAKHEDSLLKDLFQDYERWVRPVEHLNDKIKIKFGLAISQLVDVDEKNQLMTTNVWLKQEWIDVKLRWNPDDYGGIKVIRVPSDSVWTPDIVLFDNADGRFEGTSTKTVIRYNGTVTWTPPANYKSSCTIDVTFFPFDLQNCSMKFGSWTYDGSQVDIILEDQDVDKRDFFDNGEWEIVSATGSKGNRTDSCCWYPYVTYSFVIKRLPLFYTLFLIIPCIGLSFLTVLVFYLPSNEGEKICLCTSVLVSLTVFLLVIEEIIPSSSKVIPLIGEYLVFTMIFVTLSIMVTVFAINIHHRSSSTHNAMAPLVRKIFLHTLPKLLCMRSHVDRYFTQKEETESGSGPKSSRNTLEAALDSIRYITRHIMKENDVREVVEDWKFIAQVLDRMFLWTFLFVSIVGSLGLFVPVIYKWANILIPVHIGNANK

c1cncc([C@@H]2CCCN2)c1 [Nornicotine]
subtype selectivity between α3β4 and α3β4α5 nicotinic receptors [1]: no subtype selectivity
Kd [2]: 21 nM
Ki [2]: 20.8 ± 11.7 nM
Kd [3]: 36 nM
Ki [3]: 35.6 ± 18.9 nM

O=c1cccc2n1C[C@@H]1CNC[C@H]2C1 [Cytisine]
Kd [2]: 5.4 nM
Ki [2]: 5.4 ± 3.5 nM
Kd [3]: 8.5 nM
Ki [3]: 8.52 ± 5.7 nM

c1cncc([C@@H]2CCCCN2)c1 [Anabasine]
higher affinity for the α3β4α5 nAChR vs the α3β4 nAChR [1]: 10 fold
subtype selectivity between α3β4 and α3β4α5 nicotinic receptors [1]: selective for the α3β4α5 nicotinic receptor
Ki [2]: 67.5 ± 25.8 nM
Ki [3]: 528 ± 136 nM
